Key:
Thermolysin = target: T1, Thermolysin (Bacillus thermoproteolyticus, UniProt P00800); assay: Inhibition of metallopeptidase thermolysin
T1 sequence (P00800 whole entry): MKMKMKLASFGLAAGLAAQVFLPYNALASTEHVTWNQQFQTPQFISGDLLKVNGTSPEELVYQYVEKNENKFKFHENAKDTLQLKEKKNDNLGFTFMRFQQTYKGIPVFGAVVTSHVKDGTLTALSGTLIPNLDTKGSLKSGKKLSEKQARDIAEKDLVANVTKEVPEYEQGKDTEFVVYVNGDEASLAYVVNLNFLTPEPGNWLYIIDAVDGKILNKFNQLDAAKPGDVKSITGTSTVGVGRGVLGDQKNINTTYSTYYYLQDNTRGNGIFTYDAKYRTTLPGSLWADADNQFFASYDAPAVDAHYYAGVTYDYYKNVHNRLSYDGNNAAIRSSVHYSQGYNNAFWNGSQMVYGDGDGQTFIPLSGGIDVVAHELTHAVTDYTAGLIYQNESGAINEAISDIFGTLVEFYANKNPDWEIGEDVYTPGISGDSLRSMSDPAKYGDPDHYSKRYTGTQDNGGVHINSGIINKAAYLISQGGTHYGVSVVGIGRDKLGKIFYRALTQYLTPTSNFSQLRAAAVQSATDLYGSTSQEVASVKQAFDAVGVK

[1] = target: T2, Angiotensin-converting enzyme (Homo sapiens, UniProt P12821); assay: Inhibition of Angiotensin I converting enzyme
[2] = target: T3, Cholecystokinin receptor type A (Homo sapiens, UniProt P32238); assay: Antagonistic activity against cholecystokinin type A receptor; format: functional
T3 sequence (P32238 whole entry): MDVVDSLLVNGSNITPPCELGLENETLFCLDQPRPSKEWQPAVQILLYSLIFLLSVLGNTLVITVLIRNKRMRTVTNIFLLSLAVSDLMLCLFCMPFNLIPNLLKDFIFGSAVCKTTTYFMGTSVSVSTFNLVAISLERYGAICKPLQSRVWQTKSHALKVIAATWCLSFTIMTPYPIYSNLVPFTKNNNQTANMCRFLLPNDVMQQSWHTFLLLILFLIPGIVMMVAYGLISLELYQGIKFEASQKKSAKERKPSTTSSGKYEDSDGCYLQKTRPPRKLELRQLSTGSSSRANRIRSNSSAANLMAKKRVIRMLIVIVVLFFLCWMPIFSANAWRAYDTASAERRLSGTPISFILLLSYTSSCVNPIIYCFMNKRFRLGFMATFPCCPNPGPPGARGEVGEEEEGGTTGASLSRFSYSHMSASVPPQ

[3] = target: T2, Angiotensin-converting enzyme; assay: Inhibition of Angiotensin I converting enzyme at 3.3 x 10 E -4M concentration
Renin = target: T4, Renin (Homo sapiens, UniProt P00797); assay: Inhibition of human renin
T4 sequence (P00797 whole entry): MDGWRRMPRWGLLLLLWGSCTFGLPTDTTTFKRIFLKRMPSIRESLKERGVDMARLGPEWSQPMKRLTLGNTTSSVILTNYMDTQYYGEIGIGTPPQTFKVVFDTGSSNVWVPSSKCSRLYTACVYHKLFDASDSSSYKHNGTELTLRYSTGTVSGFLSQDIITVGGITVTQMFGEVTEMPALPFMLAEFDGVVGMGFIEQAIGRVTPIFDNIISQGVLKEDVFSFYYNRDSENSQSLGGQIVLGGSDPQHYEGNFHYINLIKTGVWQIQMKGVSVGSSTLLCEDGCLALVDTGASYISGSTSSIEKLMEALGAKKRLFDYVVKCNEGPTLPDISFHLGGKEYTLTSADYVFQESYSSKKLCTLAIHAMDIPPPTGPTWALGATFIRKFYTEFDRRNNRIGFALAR

T2 sequence (P12821 whole entry): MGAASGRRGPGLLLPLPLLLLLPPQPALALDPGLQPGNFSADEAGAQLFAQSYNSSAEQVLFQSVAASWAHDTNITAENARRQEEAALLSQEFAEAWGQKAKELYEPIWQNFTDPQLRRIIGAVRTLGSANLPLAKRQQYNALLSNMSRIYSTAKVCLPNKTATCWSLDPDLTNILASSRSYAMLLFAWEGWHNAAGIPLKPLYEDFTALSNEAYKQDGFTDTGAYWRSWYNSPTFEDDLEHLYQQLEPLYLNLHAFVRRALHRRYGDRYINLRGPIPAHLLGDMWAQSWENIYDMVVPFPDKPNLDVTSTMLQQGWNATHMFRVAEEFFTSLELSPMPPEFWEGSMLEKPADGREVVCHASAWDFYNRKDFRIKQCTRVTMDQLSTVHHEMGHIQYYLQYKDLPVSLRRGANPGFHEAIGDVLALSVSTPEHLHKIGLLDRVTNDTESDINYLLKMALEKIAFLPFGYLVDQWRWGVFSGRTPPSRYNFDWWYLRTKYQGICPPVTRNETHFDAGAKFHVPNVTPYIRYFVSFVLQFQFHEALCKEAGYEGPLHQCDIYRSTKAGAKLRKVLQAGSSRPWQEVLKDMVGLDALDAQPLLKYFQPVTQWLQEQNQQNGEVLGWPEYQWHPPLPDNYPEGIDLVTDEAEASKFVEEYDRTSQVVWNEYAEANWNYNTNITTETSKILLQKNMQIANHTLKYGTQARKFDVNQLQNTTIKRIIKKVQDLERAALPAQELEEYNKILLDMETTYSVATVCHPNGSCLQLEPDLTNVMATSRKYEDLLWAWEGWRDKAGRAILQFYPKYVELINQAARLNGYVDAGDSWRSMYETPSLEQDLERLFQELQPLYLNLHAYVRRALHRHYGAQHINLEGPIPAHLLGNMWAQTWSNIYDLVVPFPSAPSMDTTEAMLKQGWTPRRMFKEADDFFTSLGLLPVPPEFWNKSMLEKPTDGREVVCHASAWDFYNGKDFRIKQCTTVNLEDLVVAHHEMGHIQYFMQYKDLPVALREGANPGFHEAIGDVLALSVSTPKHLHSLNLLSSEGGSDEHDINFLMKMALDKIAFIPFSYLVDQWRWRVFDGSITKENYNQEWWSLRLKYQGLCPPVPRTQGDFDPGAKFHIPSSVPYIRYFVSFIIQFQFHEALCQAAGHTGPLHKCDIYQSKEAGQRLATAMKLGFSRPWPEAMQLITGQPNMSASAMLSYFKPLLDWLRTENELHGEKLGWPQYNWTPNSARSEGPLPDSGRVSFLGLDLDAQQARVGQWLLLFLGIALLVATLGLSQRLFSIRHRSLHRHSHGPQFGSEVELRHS

Compound	IC50 [1] [µM]	also measured
CC(NP(=O)(O)CCc1ccccc1)C(=O)N1CCCC1C(=O)O (centres undefined)		IC50 (Thermolysin): 0.007 µM
C[C@@H](NCC(=O)O)C(=O)N1CCC[C@H]1C(=O)O	2.4	
C[C@@H](CCC(=O)O)C(=O)N1CCCC1C(=O)O (some centres undefined)	4.9	
CC(C)C[C@@H]1N[C@H]2N(C1=O)c1ccccc1[C@@]2(O)C[C@@H]1NC(=O)c2ccccc2-n2c1nc1ccccc1c2=O [ASPERLICIN]		IC50 [2]: 1.4 µM
O=C(O)CCC(=O)N1CCCC1C(=O)O (centres undefined)		inhibition [3]: 43%
CC(C)(C)S(=O)(=O)C[C@@H](Cc1ccccc1)C(=O)NC1CSCCC[C@H](CN2CCOCC2)OC(=O)[C@H](O)[C@H](CC2CCCCC2)NC1=O (some centres undefined)		IC50 (Renin): 0.00035 µM
CC(N[C@H](C)C(=O)N1CCC[C@H]1C(=O)O)C(=O)O (some centres undefined)	0.09	
O=C(CCC(=O)N1CCCC1C(=O)O)NO (centres undefined)	50	
CC(CCC(=O)N1CCCC1C(=O)O)C(=O)O (centres undefined)	260	

— ChEMBL document CHEMBL1126739, “Excursions in drug discovery” (J Med Chem, 1993)
